The text below walks through data of patent US9526680B2, “Method for searching for malodor control agent, malodor control agent, and malodor control method” (Kao Corporation, priority 2010, dated 2016).

In one test the target is T1, OR51E1 (Homo sapiens, UniProt Q8TCB6).
T1 construct: expressed in transfected cells; host or cells: HEK293
T1 sequence (Q8TCB6 1-318): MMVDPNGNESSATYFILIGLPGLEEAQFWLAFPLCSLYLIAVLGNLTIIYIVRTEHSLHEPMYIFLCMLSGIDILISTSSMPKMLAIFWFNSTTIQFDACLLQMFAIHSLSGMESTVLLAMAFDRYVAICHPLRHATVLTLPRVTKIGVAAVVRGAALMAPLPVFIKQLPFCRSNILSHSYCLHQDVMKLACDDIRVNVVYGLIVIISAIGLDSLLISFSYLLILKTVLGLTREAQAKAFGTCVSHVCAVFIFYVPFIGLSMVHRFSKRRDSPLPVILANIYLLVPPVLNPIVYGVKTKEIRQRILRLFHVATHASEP
Briefly: Luciferase reporter gene assay, OR51E1 expressed in HEK293 cells. Conditions: for Inhibition ratio of OR51E1 response: response to hexanoic acid, test substance added together with hexanoic acid, HEK293. The format is cell-based. The procedure: (§1) Cloning of human olfactory receptors was performed based on the sequence information registered in GenBank, through PCR with human genomic DNA female (G1521: Promega) as a template. Each of the genes amplified through PCR was inserted into a pENTR vector (Invitrogen) according to an instruction manual. Then, the gene-inserted vector was digested with NotI and AscI, and the obtained fragments were inserted into NotI and AscI sites located downstream of the Flag-Rho tag sequence in the pME18S vector.
(§2) Each of the 350 types of human olfactory receptors was expressed in HEK293 cells. A reaction solution having a composition shown in Table 2 was prepared on a clean bench, and left to stand for 15 minutes. The solution was dispensed to each well of a 96-well plate (BD). Subsequently, […] cells (100 μL, 3×10^5 cells/cm^2) were seeded in each well and cultured for 24 hours in an incubator at 37° C. and under 5% CO2 conditions.
(§3) The olfactory receptor expressed in HEK293 cell was conjugated with cell-intrinsic Gas to activate adenylate cyclase, and thereby the level of intracellular cAMP was increased. For the measurement of the response to odor in this study, the luciferase reporter gene assay was used, in which an increase in the amount of intracellular cAMP was monitored by using the emission value originating from firefly luciferase gene (fluc2P-CRE-hygro) as an indicator. Furthermore, a gene product obtained by fusing renilla luciferase gene in the downstream of CMV promoter (hRluc-CMV) was simultaneously introduced, and this was used as an internal standard for correcting an error in the transgenesis efficiency or the number of cells. The medium was removed from the culture prepared in the above-described section 3) by using a Pipetman, and 75 μl of a solution containing an odor substance (1 mM hexanoic acid or 300 μM nonanoic acid) prepared in CD293 medium (Invitrogen) was added thereto. The cells were cultured for 4 hours in a CO2 incubator, and the luciferase gene was sufficiently expressed in the cells. For the measurement of luciferase activity, the measurement was carried out by using a Dual-Glo™ luciferase assay system (Promega) according to the operation manual of the product. A value calculated by dividing the emission value, derived from a firefly luciferase induced by the stimulation with an odor substance, by the emission value in cells that were not-stimulated with an odor substance, was designated as a fold increase, and used as an index of response intensity.
(§4) OR2W1, OR10A6, OR51E1, OR51I2, and OR51L1 were respectively expressed in HEK293 cells by the same method as that used in Example 1, and a luciferase assay was carried out. In the luciferase assay, hexanoic acid was used as the odorous substance, and test substances were added together with hexanoic acid. The response of the olfactory receptors to hexanoic acid was measured, and a decrease in the receptor response to the addition of test substances was evaluated.
(§5) The inhibition ratios of the receptor response to test substances were calculated as follows. The emission value (Y) obtained from the cells in which the same receptors were introduced but no odor stimulation was conducted, was subtracted from the emission value derived from firefly luciferase (X) induced by odor stimulation with hexanoic acid alone. Similarly, the emission value (Y) obtained from the cells in which no odor stimulation was conducted, was subtracted from the emission value (Z) caused by stimulation with a mixture of hexanoic acid and a test substance. By the following calculation formula, the inhibitory activity of the test substance to receptor response was calculated based on the increment of the emission value (X−Y) caused by stimulation of hexanoic acid alone. Multiple independent experiments were performed in duplicate, and the average of each experiment was obtained. Inhibition ratio (%)={1−(Z−Y)/(X−Y)}×100 […]
Background: In a reporter assay the amount or activity of a reporter protein is the signal.

In another test the target is T2, OR2W1 (Homo sapiens, UniProt Q9Y3N9).
T2 construct: expressed in transfected cells; host or cells: HEK293
T2 sequence (Q9Y3N9 1-320): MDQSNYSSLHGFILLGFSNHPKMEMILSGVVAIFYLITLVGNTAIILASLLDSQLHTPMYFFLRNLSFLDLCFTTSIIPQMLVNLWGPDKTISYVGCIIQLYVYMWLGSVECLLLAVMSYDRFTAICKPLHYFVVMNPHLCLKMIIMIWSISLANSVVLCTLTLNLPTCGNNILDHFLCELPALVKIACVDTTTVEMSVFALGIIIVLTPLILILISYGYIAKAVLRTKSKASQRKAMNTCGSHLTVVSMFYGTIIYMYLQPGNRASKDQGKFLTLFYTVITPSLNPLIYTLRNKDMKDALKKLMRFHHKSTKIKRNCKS
The experiment in a line: Luciferase reporter gene assay, OR2W1 expressed in HEK293 cells. The format is cell-based. The conditions noted are these: for Inhibition ratio of OR2W1 response: response to hexanoic acid, test substance added together with hexanoic acid, HEK293. The procedure: as §1, §2, §3, §4, §5

Test [1] is described as follows: Sensory evaluation test of hexanoic acid odor inhibition. The format is in vivo. Conditions: for Intensity of odor: hexanoic acid odor, malodor alone rated as 5, 0 to 10 points, test substance diluted 100 times with propylene glycol, three panelists; for Inhibition of hexanoic acid odor (in words): sensory test, test substance diluted 100 times with propylene glycol (FIG. 5, Table 4). The procedure:
Cotton balls were introduced into a glass bottle (Hakuyo Glass Co., Ltd. No. 11, capacity 110 ml), and hexanoic acid diluted 100 times with propylene glycol, nonanoic acid diluted 10 times with propylene glycol, or isovaleric acid diluted 1000 times with propylene glycol, as a malodor, and a test substance were added dropwise in an amount of […] to the cotton balls. The glass bottle was left to stand overnight at room temperature, and the odor molecules were sufficiently volatilized in the glass bottle. A sensory evaluation test was carried out by a panel of three panelists (5 panelists for isovaleric acid), and while the intensity of odor in the case of adding dropwise the malodor alone was rated as 5, the intensity of the malodor in the case of incorporating a test substance was evaluated on the basis of a system of 20 grades from 0 point to 10 points (0.5 points per grade).
Regarding the test substance, florhydral (Givaudan SA), bourgeonal (Givaudan SA), hydroxycitronellal (Givaudan SA, International Flavors & Fragrances, Inc., and the like), 4-isopropylcyclohexanecarbaldehyde (synthesized according to a method described in JP-A-2-188549), 4-(2-methoxyphenyl)-2-methyl-2-butanol (JP-A-9-111281), florosa (Givaudan SA), isocyclocitral (Givaudan SA, International Flavors & Fragrances, Inc., and the like), tripral (International Flavors & Fragrances, Inc.), and Pollenal II (Kao Corp.), which had been diluted 100 times with propylene glycol, were used for hexanoic acid; florhydral that had been diluted 10 times with propylene glycol was used for nonanoic acid; and florhydral that had been diluted 1000 times with propylene glycol was used for isovaleric acid.

Setting [2] is: 1 mM hexanoic acid, test substance 3, 10, 30, 100, 300 μM (FIG. 4).

With “2,4,6-trimethyl-3-cyclohexene-1-carboxyaldehyde, 3,5,6-trimethyl-3-cyclohexene-1-carboxyaldehyde [Isocyclocitral]”, the “Inhibition ratio of OR51E1 response” value at OR51E1 is given as 1 (Inhibition ratio: 50% or higher). Further, on OR2W1, the “Inhibition ratio of OR2W1 response” value is 1 (Inhibition ratio: 50% or higher). Further, in test [1], the Intensity of odor is reported as 0.67 and the “Inhibition of hexanoic acid odor (in words)” value is reported as “inhibit the hexanoic acid odor”.
As to `CC(C)c1cccc(C(C)CC=O)c1` (stereo not shown) [Florhydral, 3-(3-isopropylphenyl)-butyraldehyde], the “Inhibition of OR51E1 response to hexanoic acid (in words)” value on OR51E1 (setting [2]) is listed as “in a concentration-dependent manner”. Moreover, the “Inhibition ratio of OR51E1 response” value at OR51E1 is given as 1 (Inhibition ratio: 50% or higher). In addition, the “Inhibition of OR2W1 response to hexanoic acid (in words)” value on OR2W1 (setting [2]) was “in a concentration-dependent manner”. For the same compound, the “Inhibition ratio of OR2W1 response” value at OR2W1 is 1 (Inhibition ratio: 50% or higher). Besides, in test [1], the Intensity of odor amounted to 1.25 and the “Inhibition of hexanoic acid odor (in words)” value is “markedly inhibited”.
